# Test results: patent publication US11958860B2, “Crystal form of compound, and preparation method therefor and use thereof” (JIANGSU KANION PHARMACEUTICAL CO., LTD., priority 2021, dated 2024)
# What was measured:
# Format in all cases: physicochemical
# [1] = Comparison of crystal form stability (equilibrated suspension); conditions: conclusion from the crystal transformation results (Tables 2 and 3)
# Procedure: 5 mg of each sample is taken and mixed with 1 ml of a solvent at 25° C. Experimental conditions and results are as follows: […]
# [2] = Dynamic vapor sorption (DVS) hygroscopicity test; conditions: for water absorption percentage / water loss percentage: 25 °C
# From the text: Dynamic vapor sorption (DVS) test/hygroscopicity test is to quickly determine the increase and loss of sample moisture caused by a flowing carrier gas with a set relative humidity (RH). The sample is placed on a high-sensitivity and high-stability digital micro-balancer in a self-suspension state, and then the sorption/desorption of water vapor is detected by determining the increase/decrease of material mass, so as to determine the hygroscopicity of the sample.
# In the present invention, test parameters of the DVS are as follows: device model: SMS DVS Intrinsic; 0-95% RH; temperature: 25° C.
# A dynamic vapor sorption (DVS) device is used to investigate the moisture sorption and desorption of samples at a temperature of 25° C. and a relative humidity of 0-95%, so as to determine the hygroscopic sorption properties of different crystal forms.
# [3] = Transformation experiment between crystal forms (heating); conditions: heating temperature 120 °C, heating time 40 min
# From the text: Four crystal forms, such as Form A, Form B, Form C, and Form D, are experienced for mutual transformation experiment. Experimental conditions and results are as follows: […]
# [4] = Percentage of solvent or water in crystal form
# From the text: Thermo gravimetric analysis (TGA for short) is an analysis technique to determine the change of mass of substances with temperature under conditions of programmed temperature control. […] Thus, such thermo gravimetric analysis is suitable for detecting the loss of crystallization solvents or crystallization water molecules in crystalline substances or the process and magnitude of sublimation and decomposition of the sample, and can also effectively distinguish whether the substances contain the crystallization solvents or the crystallization water molecules.
# In the present invention, test parameters of the TGA are as follows: device model: Netzsch TG 209F3; temperature range: 30-400° C.; scanning rate: 10 k/min; purge gas: 25 ml/min; and protective gas: 15 mL/min.
relative stability of crystal forms [1],water absorption percentage ([2]; RH 65%),water absorption percentage ([2]; RH 80%),"change in hygroscopicity and weight (DVS) ([2]; relative humidity of 0-95%, FIG. 5)",Crystal form of product [3],Percentage of solvent or water [4],water loss percentage ([2]; RH 65%),water loss percentage ([2]; RH 80%),SMILES
most stable crystal form,percentage (0.1%),percentage (0.2%),approximately 0.6%,Form A,0.0%,–,–,"COc1cc2c(cc1OC)CN1CCc3cc4c(cc3[C@@H]1C2)OCO4 [Form A, S-(−)-2,3-methylenedioxy-5,8,13,13a-tetrahydro-10,11-dimethoxy-6H-dibenzo[a, g]quinolizine]"
–,percentage (0.5%),percentage (1.2%),–,Form A,4.4%,–,–,"COc1cc2c(cc1OC)CN1CCc3cc4c(cc3C1C2)OCO4 (single isomer, unassigned) [Form C, S-(−)-2,3-methylenedioxy-5,8,13,13a-tetrahydro-10,11-dimethoxy-6H-dibenzo[a, g]quinolizine]"
–,percentage (0.2%),percentage (0.3%),–,Form A,0.0%,–,–,"COc1cc2c(cc1OC)CN1CCc3cc4c(cc3C1C2)OCO4 (single isomer, unassigned) [Form D, S-(−)-2,3-methylenedioxy-5,8,13,13a-tetrahydro-10,11-dimethoxy-6H-dibenzo[a, g]quinolizine]"
–,–,–,–,Form A,10.8%,percentage (0.2%),percentage (0.3%),"COc1cc2c(cc1OC)CN1CCc3cc4c(cc3C1C2)OCO4 (single isomer, unassigned) [Form B, S-(−)-2,3-methylenedioxy-5,8,13,13a-tetrahydro-10,11-dimethoxy-6H-dibenzo[a, g]quinolizine]"
